{
  "source": "patent US11173173B2",
  "about": "“Methods for treating chemoresistant cancer-initiating cells” (UNIVERSITY OF CONNECTICUT, priority 2015, dated 2021)",
  "key": {"pS^552-β-catenin": {"test_system": "pS^552-β-catenin", "assay": "Anti-pS552-β-catenin staining of populations sorted from treated leukemic mice", "type": "in vivo, mouse", "conditions": "[Low]DXR 0.5 mg/kg daily x5; chemotherapy Nelarabine 217 mg/kg + Dexamethasone 10 mg/kg daily x5", "source_text": "Open arrows indicate a single treatment cycle for typical clinical use of DXR and targeted use strategy (inner box) drawn to relative scales. Triangles represent DXR treatment drawn proportionally to scale. The cumulative targeted dose (distributed over 5 days consecutively) is indicated to relative scale by the inner triangle (white) (see Methods). c, Representative flow cytometry sorting gates indicating HSPC, LSC and (non-LSC) T-ALL blast cell populations. d, Populations from (c) were sorted from leukemic mice treated as indicated in (a,b) with vehicle, chemotherapy, [Low]DXR or chemotherapy+[Low]DXR and stained with Anti-pS^552-β-catenin antibody. Mean fluorescent intensity (MFI) is indicated for each population and treatment. e, Representative images of pS^552-β-catenin staining of LSCs sorted from mice treated as indicated from (d). Scale bars, 30 μm (inset 3 μm).\nChemotherapy consisted of Nelarabine (Selleck) and Dexamethasone (BioVision) administered daily for 5 days consecutively. 43.4 mg/ml Nelarabine was administered intravenously via the tail vain according to the formula: Body Weight (g)×5=volume to inject (μl), which yielded 217 mg/kg. 2.5 mg/ml Dexamethasone was injected intraperitoneally according to the formula: Body Weight (g)×4=volume to inject (μl), yielding 10 mg/kg. […]\nIt was next determined whether DXR could inhibit pS^552-β-catenin in vivo. […]"}, "[1]": {"test_system": "blast cells, LSCs and HSPCs sorted from treated leukemic mice", "assay": "Limiting-dilution transplants into NSG recipients, CRU frequency (ELDA)", "type": "in vivo, mouse", "conditions": "for Engrafted: HSPCs", "method": "Leukemic mice were treated with vehicle, chemotherapy, [Low]DXR or chemotherapy+[Low]DXR as described in FIG. 3a. a-c, At 10 days post-treatment, BM was analyzed by flow cytometry to determine frequency of blast cells (a), LSCs (b) and HSPCs (c). Shown are representative plots. d, Average frequency±SD of each population from a-c (n≥6 per group). e, Limiting-dilution assays to determine CRU frequency were performed on blast cells and LSCs sorted from chemotherapy treated leukemic mice and on HSPCs sorted from [Low]DXR treated mice. Engraftment 1% blast cells) was determined in NSG recipients at 10-12 weeks post-transplant.\nLimiting-dilution and tumorigenic assays were performed by establishing leukemic mice as described above and treating as indicated at 8 weeks post-induction. For limiting-dilution transplants, mice were treated with chemotherapy or [Low]DXR and, at 10 days post-treatment (based on first treatment), CD45^Hi CD^3+ c-Kit^− blast cells or Lin^− CD^3+ c-Kit^Mid LSCs were sorted from chemotherapy treated mice and Lin^− Sca-1^+ c-Kit^+ HSPCs were sorted from [Low]DXR treated mice. The indicated numbers of these populations were transplanted into 3.25 Gy irradiated NOD. Cg-Prkdc^scid II2rg^tm1WjI/SzJ (NSG) recipient mice. Recipient bone marrow was analyzed by flow cytometry at 10-12 weeks post-transplant and those with ≥1% CD45^Hi blast cells in bone marrow were considered engrafted. CRU frequency was determined using ELDA analysis."}, "[2]": {"test_system": "BM cells isolated from leukemic Pten:β-cat^Act double mutants (LSCs, HSPCs)", "assay": "In vitro treatment of BM cells from leukemic mice, flow cytometry for LSCs and HSPCs", "type": "cell-based, mouse", "conditions": "11, 33 or 100 nM, 72 hours", "method": "Doxorubicin, 0105375, and thioguanosine were added to 11, 33 or 100 nM and cultured for 72 hours and analyzed by flow cytometry for LSCs (a) and HSPCs (b) as in FIG. 1. Fold change before and after culture for each population is indicated relative to equivalent vehicle control concentrations.\nBone marrow cells from leukemic mice at 8 weeks post-induction were cultured overnight at 5-20×10^4 cells per well in 96-well U-bottom tissue culture plates (Becton, Dickinson and Company; Cat. No. 353077) in HSC expansion media in low O2 conditions as previously described (Perry, J. M. et al. Cooperation between both Wnt/{beta}-catenin and PTEN/PI3K/Akt signaling promotes primitive hematopoietic stem cell self-renewal and expansion. Genes Dev 25, 1928-1942 (2011)). Doxorubicin (Sigma; D1515), 0105375 ((S)-N-(2-bromobenzyl)-N-(1-hydroxy-3-phenylpropan-2-yl)ethenesulfonamide, University of Kansas CMLD compound), or Thioguanosine was mixed with HSC expansion media and added to the cultures to obtain final concentrations of 11, 33, 100 nM. Equivalent amounts of DMSO alone (vehicle control) were added to parallel cultures for comparison. Half-media changes were performed approximately every 24 hrs. Cultures were analyzed after 72 hrs exposure to the indicated drug."}, "pan β-catenin": {"test_system": "pan β-catenin", "assay": "Western analysis of pan β-catenin in compound-treated TOP and FOP cells", "conditions": "TOP and FOP cells treated 48 hours at EC90, EC50, EC25", "protocol": "Cytotoxicity profiles (CTG) of compounds were also determined. […] TOP and FOP cells were treated with candidate compounds at EC90, EC50 and EC25 derived from (b) for 48 hours, washed and flash frozen for Western analysis (c).\nActivity of compounds was tested against HEK-TOP cells vs. HEK FOP cells for inhibition of luciferase activity. The cytotoxicity profiles of the compounds were also tested using Cell Titer Glo assay (Promega) on HEK-TOP cell lines. […] The HEK cells and HEK Top cells were plated at 300,000 cells/well in 6 well plates and were treated in duplicate with EC90, EC50 and EC25 concentrations of the 25 repurchased compounds as well as three controls. After 48 h of exposure, the cells were washed with PBS and flash frozen. The frozen cells were lysed directly in plates for Western analysis."}},
  "data": [
    {"smiles": "COc1cccc2c1C(=O)c1c(O)c3c(c(O)c1C2=O)C[C@@](O)(C(=O)CO)C[C@@H]3O[C@H]1C[C@H](N)[C@H](O)[C@H](C)O1", "note": "[DXR, doxorubicin]", "values": [
      {"measurement": "pS552-β-catenin level in LSCs sorted from treated mice", "setting": "pS^552-β-catenin", "value": "reduced in LSCs isolated from mice recently treated with [Low]DXR, although consistent variability yielded no statistical significance"},
      {"measurement": "engraftment behaviour of HSPCs sorted from treated mice", "setting": "[1]; 10-12 weeks post-transplant", "value": "only engrafted at low levels without developing into leukemia"},
      {"measurement": "Engrafted", "setting": "[1]; dose 50, 5 tested", "value": 0},
      {"measurement": "Engrafted", "setting": "[1]; dose 150, 6 tested", "value": 1},
      {"measurement": "Engrafted", "setting": "[1]; dose 450, 5 tested", "value": 1},
      {"measurement": "HSPCs after culture, relative to vehicle", "setting": "[2]", "value": "not HSPCs"},
      {"measurement": "LSCs after culture, relative to vehicle", "setting": "[2]", "value": "significantly reduced LSCs"},
      {"measurement": "effect on pan β-catenin (Western)", "setting": "pan β-catenin", "value": "only minimal effect on pan β-catenin"}
    ]}
  ]
}
